From publication PMC7933434, “Entropy-driven binding of gut bacterial β-glucuronidase inhibitors ameliorates irinotecan-induced toxicity” (Communications Biology, 2021)
Several values for one entry are separate records, joined by “and”; a condition that tells them apart may be missing. Equal values may be shown once.

Legend:
HsGUS (human GUS) = biological target: T1, HsGUS (human GUS) (Homo sapiens, UniProt P08236); experiment: GUS inhibition assay, hydrolysis of 4-methylumbelliferyl-β-glucuronide, HsGUS; format: biochemical; parameters: GUS activity (hydrolysis rate of MUG): unit not given here
T1 construct: HsGUS was prepared as described[37]; made in house
T1 sequence (P08236 23-651): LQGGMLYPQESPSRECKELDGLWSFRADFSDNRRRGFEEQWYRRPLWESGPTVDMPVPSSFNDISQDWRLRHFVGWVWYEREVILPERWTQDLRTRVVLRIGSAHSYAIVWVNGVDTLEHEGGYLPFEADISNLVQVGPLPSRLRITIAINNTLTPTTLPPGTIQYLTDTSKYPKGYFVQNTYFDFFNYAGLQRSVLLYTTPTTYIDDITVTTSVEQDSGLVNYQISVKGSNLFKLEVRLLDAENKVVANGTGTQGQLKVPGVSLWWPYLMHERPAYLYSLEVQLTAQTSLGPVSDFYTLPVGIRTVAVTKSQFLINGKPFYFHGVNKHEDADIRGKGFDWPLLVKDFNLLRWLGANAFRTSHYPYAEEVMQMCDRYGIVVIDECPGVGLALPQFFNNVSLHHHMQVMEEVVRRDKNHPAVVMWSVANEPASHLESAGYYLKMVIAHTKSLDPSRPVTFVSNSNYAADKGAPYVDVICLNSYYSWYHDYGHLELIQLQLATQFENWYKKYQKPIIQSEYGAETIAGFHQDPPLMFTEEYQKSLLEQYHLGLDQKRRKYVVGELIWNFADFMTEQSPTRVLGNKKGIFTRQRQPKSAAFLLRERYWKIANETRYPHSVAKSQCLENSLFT

EcGUS = EcGUS (Escherichia coli, UniProt P05804); experiment: Isothermal titration calorimetry, EcGUS; format: binding; conditions: EcGUS, 298 K
BdGUS = BdGUS (Bifidobacterium dentium, UniProt D2Q7B1); experiment: biochemical; format: binding; conditions: BdGUS; Tris buffer (250 mM NaCl, 20 mM Tris, pH 8.0); 298 K
[1] = Tris buffer (250 mM NaCl, 20 mM Tris, pH 8.0)
[2] = phosphate buffer (250 mM NaCl, 20 mM KH2PO4, 100 mM Na2HPO4, pH 8.0)

EcGUS, sequence (P05804 whole entry): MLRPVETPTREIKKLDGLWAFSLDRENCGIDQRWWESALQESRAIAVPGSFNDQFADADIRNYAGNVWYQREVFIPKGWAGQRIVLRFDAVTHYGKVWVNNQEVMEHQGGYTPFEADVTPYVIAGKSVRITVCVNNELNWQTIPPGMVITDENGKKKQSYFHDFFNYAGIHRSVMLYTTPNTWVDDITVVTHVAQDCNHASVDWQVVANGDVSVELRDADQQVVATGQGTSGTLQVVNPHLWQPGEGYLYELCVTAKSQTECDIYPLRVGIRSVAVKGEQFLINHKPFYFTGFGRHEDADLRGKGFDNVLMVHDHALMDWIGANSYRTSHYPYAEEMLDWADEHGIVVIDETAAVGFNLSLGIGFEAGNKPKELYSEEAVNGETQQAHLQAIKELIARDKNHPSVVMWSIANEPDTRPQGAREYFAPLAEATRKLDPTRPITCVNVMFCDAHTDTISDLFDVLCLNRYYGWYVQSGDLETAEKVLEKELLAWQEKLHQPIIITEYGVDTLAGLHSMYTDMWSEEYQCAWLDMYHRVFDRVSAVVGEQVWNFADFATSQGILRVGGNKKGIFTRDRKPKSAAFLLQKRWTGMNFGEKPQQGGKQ
BdGUS, sequence (D2Q7B1 entry or part of it): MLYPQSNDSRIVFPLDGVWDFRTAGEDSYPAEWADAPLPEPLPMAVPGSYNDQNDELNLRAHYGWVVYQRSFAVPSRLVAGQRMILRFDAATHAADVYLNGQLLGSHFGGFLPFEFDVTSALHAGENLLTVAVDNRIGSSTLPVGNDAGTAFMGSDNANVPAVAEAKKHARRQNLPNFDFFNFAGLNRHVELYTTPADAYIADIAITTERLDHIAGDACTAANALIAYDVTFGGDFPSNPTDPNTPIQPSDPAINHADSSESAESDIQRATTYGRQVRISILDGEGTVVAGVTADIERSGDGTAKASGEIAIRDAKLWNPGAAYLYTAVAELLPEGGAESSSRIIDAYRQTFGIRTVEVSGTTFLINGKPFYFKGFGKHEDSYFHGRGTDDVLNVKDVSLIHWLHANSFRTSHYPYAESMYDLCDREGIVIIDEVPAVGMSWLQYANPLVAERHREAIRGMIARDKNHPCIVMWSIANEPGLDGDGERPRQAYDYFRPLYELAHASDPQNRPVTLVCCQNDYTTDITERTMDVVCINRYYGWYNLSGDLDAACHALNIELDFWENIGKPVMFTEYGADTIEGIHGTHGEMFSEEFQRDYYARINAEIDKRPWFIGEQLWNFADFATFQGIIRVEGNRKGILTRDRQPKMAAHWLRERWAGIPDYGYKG

O=C(O)[C@H]1CNC[C@@H](O)[C@@H]1O [Inhibitor 1, Uronic isofagomine]
GUS activity (hydrolysis rate of MUG) (HsGUS (human GUS); [Inhibitor 1] =12.5 nM, [MUG] 0.4 mM): 2735.98 and 2661.78
GUS activity (hydrolysis rate of MUG) (HsGUS (human GUS); [Inhibitor 1] =12.5 nM, [MUG] 0.6 mM): 3585.06 and 3536.5
GUS activity (hydrolysis rate of MUG) (HsGUS (human GUS); [Inhibitor 1] =12.5 nM, [MUG] 0.8 mM): 4058.66 and 4004.34
GUS activity (hydrolysis rate of MUG) (HsGUS (human GUS); [Inhibitor 1] =12.5 nM, [MUG] 1.2 mM): 4753.61 and 4787.97
GUS activity (hydrolysis rate of MUG) (HsGUS (human GUS); [Inhibitor 1] =12.5 nM, [MUG] 1.6 mM): 5496.19 and 5468.5
GUS activity (hydrolysis rate of MUG) (HsGUS (human GUS); [Inhibitor 1] =12.5 nM, [MUG] 2 mM): 6215.35 and 6326.21
GUS activity (hydrolysis rate of MUG) (HsGUS (human GUS); [Inhibitor 1] =25 nM, [MUG] 0.1 mM): 888.487 and 880.944
GUS activity (hydrolysis rate of MUG) (HsGUS (human GUS); [Inhibitor 1] =25 nM, [MUG] 0.2 mM): 1602.44 and 1479.41
GUS activity (hydrolysis rate of MUG) (HsGUS (human GUS); [Inhibitor 1] =25 nM, [MUG] 0.4 mM): 2621.31 and 2595.47
GUS activity (hydrolysis rate of MUG) (HsGUS (human GUS); [Inhibitor 1] =25 nM, [MUG] 0.6 mM): 3374.76 and 3226.51
GUS activity (hydrolysis rate of MUG) (HsGUS (human GUS); [Inhibitor 1] =25 nM, [MUG] 0.8 mM): 3934.08 and 3700.76
GUS activity (hydrolysis rate of MUG) (HsGUS (human GUS); [Inhibitor 1] =25 nM, [MUG] 1.2 mM): 4557.18 and 4846.86
GUS activity (hydrolysis rate of MUG) (HsGUS (human GUS); [Inhibitor 1] =25 nM, [MUG] 1.6 mM): 5394.55 and 5298.67
GUS activity (hydrolysis rate of MUG) (HsGUS (human GUS); [Inhibitor 1] =25 nM, [MUG] 2 mM): 6010.34 and 6068.98
GUS activity (hydrolysis rate of MUG) (HsGUS (human GUS); [Inhibitor 1] =50 nM, [MUG] 0.1 mM): 874.409 and 866.834
GUS activity (hydrolysis rate of MUG) (HsGUS (human GUS); [Inhibitor 1] =50 nM, [MUG] 0.2 mM): 1446.88 and 1448.8
GUS activity (hydrolysis rate of MUG) (HsGUS (human GUS); [Inhibitor 1] =50 nM, [MUG] 0.4 mM): 2554.3 and 2362.71
GUS activity (hydrolysis rate of MUG) (HsGUS (human GUS); [Inhibitor 1] =50 nM, [MUG] 0.6 mM): 3157.04 and 3034.34
GUS activity (hydrolysis rate of MUG) (HsGUS (human GUS); [Inhibitor 1] =50 nM, [MUG] 0.8 mM): 3775.39 and 3558.36
GUS activity (hydrolysis rate of MUG) (HsGUS (human GUS); [Inhibitor 1] =50 nM, [MUG] 1.2 mM): 4410.62 and 4573.1
GUS activity (hydrolysis rate of MUG) (HsGUS (human GUS); [Inhibitor 1] =50 nM, [MUG] 1.6 mM): 4956.91 and 5204.72
GUS activity (hydrolysis rate of MUG) (HsGUS (human GUS); [Inhibitor 1] =50 nM, [MUG] 2 mM): 5814.43 and 5846.27
GUS activity (hydrolysis rate of MUG) (HsGUS (human GUS); [Inhibitor 1] =100 nM, [MUG] 0.1 mM): 714.467 and 698.837
GUS activity (hydrolysis rate of MUG) (HsGUS (human GUS); [Inhibitor 1] =100 nM, [MUG] 0.2 mM): 1267.32 and 1255.83
GUS activity (hydrolysis rate of MUG) (HsGUS (human GUS); [Inhibitor 1] =100 nM, [MUG] 0.4 mM): 2205.11 and 2224.51
GUS activity (hydrolysis rate of MUG) (HsGUS (human GUS); [Inhibitor 1] =100 nM, [MUG] 0.6 mM): 2972.37 and 2813
GUS activity (hydrolysis rate of MUG) (HsGUS (human GUS); [Inhibitor 1] =100 nM, [MUG] 0.8 mM): 3383.16 and 3413.02
GUS activity (hydrolysis rate of MUG) (HsGUS (human GUS); [Inhibitor 1] =100 nM, [MUG] 1.2 mM): 4189.2 and 4174.02
GUS activity (hydrolysis rate of MUG) (HsGUS (human GUS); [Inhibitor 1] =100 nM, [MUG] 1.6 mM): 4730.59 and 4939.86
GUS activity (hydrolysis rate of MUG) (HsGUS (human GUS); [Inhibitor 1] =100 nM, [MUG] 2 mM): 5626.48 and 5332.35
GUS activity (hydrolysis rate of MUG) (HsGUS (human GUS); [Inhibitor 1] =200 nM, [MUG] 0.1 mM): 493.269 and 528.779
GUS activity (hydrolysis rate of MUG) (HsGUS (human GUS); [Inhibitor 1] =200 nM, [MUG] 0.2 mM): 887.805 and 953.041
GUS activity (hydrolysis rate of MUG) (HsGUS (human GUS); [Inhibitor 1] =200 nM, [MUG] 0.4 mM): 1572.94 and 1681.59
GUS activity (hydrolysis rate of MUG) (HsGUS (human GUS); [Inhibitor 1] =200 nM, [MUG] 0.6 mM): 2196.34 and 2140.47
GUS activity (hydrolysis rate of MUG) (HsGUS (human GUS); [Inhibitor 1] =200 nM, [MUG] 0.8 mM): 2605.47 and 2684.29
GUS activity (hydrolysis rate of MUG) (HsGUS (human GUS); [Inhibitor 1] =200 nM, [MUG] 1.2 mM): 3423.7 and 3486.94
GUS activity (hydrolysis rate of MUG) (HsGUS (human GUS); [Inhibitor 1] =200 nM, [MUG] 1.6 mM): 4057.78 and 4000.72
GUS activity (hydrolysis rate of MUG) (HsGUS (human GUS); [Inhibitor 1] =200 nM, [MUG] 2 mM): 4782.69 and 4439.05
Kd (EcGUS; [1]): 0.02 ± 0.002 µM
ΔG (EcGUS; [1]): –10.63 ± 0.075 kcal/mol
—TΔS (EcGUS; [1]): –1.51 ± 0.20 kcal/mol
Kd (EcGUS; [2]): 0.06 ± 0.001 µM
ΔG (EcGUS; [2]): –9.89 ± 0.01 kcal/mol
ΔH (EcGUS; [2]): –9.48 ± 0.29 kcal/mol
—TΔS (EcGUS; [2]): –0.41 ± 0.30 kcal/mol
Kd (BdGUS): 0.3 ± 0.06 µM
ΔG (BdGUS): –8.91 ± 0.13 kcal/mol
ΔH (BdGUS): –10.47 kcal/mol
—TΔS (BdGUS): 6.53 ± 1.55 kJ/mol
